Patent US20090118223A1, “Novel 2'-c-methyl and 4'c-methyl nucleoside derivatives” (priority 2005, published 2009)
Where a name gives a salt, the structure may show the parent alone.

Legend:
[1] = Liver targeting of 2′-C-methylcytidine and its prodrugs in rats: liver NTP vs plasma nucleoside (Example K); assay type: in vivo; conditions: male Sprague-Dawley rats, intraperitoneal, 5 mg/kg nucleoside equivalents
Procedure: The liver specificity of the prodrug compounds 35.3, 35.4, and 35.5 was compared relative to the parent nucleoside, 2′-C-methylcytidine, by measuring the generation of NTP in the liver compared to nucleoside in the plasma.
Prodrug compounds 35.3, 35.4, 35.5, 38.3, 38.6, 40.1, 40.6, 40.7, 40.8, 41.2 or 2′-C-methylcytidine were administered intraperitoneally to male Sprague-Dawley rats at a dose of 5 mg/kg based on nucleoside equivalents (5 mg/kg 2′-C-methylcytidine and ˜7-10 mg/kg prodrug compounds). Plasma concentrations of 2′-C-methylcytidine and the liver concentrations of the 5′-triphosphate of 2′-C-methylcytidine were measured by LC-MS using the standard ion-pairing chromatography methods for nucleoside and triphospliate, respectively, as described in Example E. Conventional SAX HPLC-UV could not differentiate between endogenous CTP and 2′-C-methylcytidine triphosphate.

[2] = tested on: HCV replication in human liver tissue; assay: HCV-infected human liver slice assay (Example F); assay type: cell-based; conditions: for amount of HCV RNA released into the culture medium from 48-72 h: treatment of HCV-infected human liver slices for 72 h
Procedure: Inhibition of HCV replication in human liver tissue was evaluated using the following assay.
Liver from a brain-dead HCV antibody-positive human patient was perfused with ice-cold Viaspan (Dupont Pharmaceutical) preservation solution and received on ice in Viaspan.
Precision-cut liver slices of 200-250 μm thickness and […] diameter were prepared and cultured in Waymouth's cell culture medium (Gibco, Inc.) that was supplemented with 10% fetal bovine serum and 10 mL/L Fungi-Bact at 37° C., and gassed with carbogen (95% O2, 5% CO2) at 0.75 liters/min. Tissue slices were maintained in culture for 72 h. Cell culture medium containing test compound in solution was changed on a daily basis.
At appropriate times of liver slice incubation, liver slices and medium were collected for analysis of HCV RNA (tissue and medium) and nucleotide levels (NTP). All collected media and tissue slices were maintained in liquid N2 until analysis.
Medium and tissue samples were analyzed for HCV RNA levels according to published procedures (Bonacini et. al., 1999) which utilize an automated, multicycle, polymerase chain reaction (PCR)-based technique. This assay has a lower limit of detection for HCV RNA of 100 viral copies/ml.
Frozen liver slices were disrupted by using a combination of ultrasound probe sonication, Branson Sonifier 450 (Branson Ultrasonics, Danbury, Conn.) and homogenization using a Dounce conical pestle in 200 μls of 10% (v/v) perchloric acid (PCA). After a […] centrifugation at 2,500×g, the supernatants were neutralized using 3 M KOH/3 M KHCO3 and mixed thoroughly. The neutralized samples were centrifuged at 2,500 g for 5 min and NTP levels were determined by ion exchange phase HPLC (Hewlett Packard 1050) using a Whatman Partisil 5 SAX (5 μm, 4.6×250 mm) column. […] Nucleoside triphosphates were eluted from the column using a linear gradient to 80% 1 M ammonium phosphate pH 3.5/6% ethanol buffer, at a flow rate of 1.25 mL/min and detected by UV absorbance (254 nm).

C[C@@]1(O)[C@H](O)[C@@H](COP2(=O)OCC[C@@H](c3ccncc3)O2)O[C@H]1n1ccc2c(=O)[nH]c(N)nc21 (stereo partly drawn) [Compound 17.13, 2-amino-7-(cis-5′-O-[4-(S)-(pyridin-4-yl)-2-oxo-1,3,2-dioxaphosphorinan-2-yl]-2′-C methyl-beta-D-ribofuranosyl)-7H-pyrrolo[2,3-d]pyrimidin-4(3H)-one]
melting point: 138 to 141 °C

C[C@@]1(O)[C@H](O)[C@@H](COP2(=O)OCC[C@H](c3cccc(Cl)c3)O2)O[C@H]1n1ccc2c(=O)[nH]c(N)nc21 (stereo partly drawn) (as salt: trifluoroacetic acid salt) [Compound 17.10, 2-amino-7-(cis-5′-O-[4-(R)-(3-chlorophenyl)-2-oxo-1,3,2-dioxaphosphorinan-2-yl]-2′-C methyl-beta-D-ribofuranosyl)-7H-pyrrolo[2,3-d]pyrimidin-4(3H)-one trifluoroacetic acid salt]
melting point: 170 to 180 °C

CC(=O)O[C@@H]1[C@@H](CO[P@@]2(=O)OCCC(c3ccncc3)O2)O[C@@H](n2ccc3c(N)ncnc32)[C@]1(C)O (some centres unmarked) [Compound 22.1]
melting point: 182 to 185 °C

CC(C)[C@H](N)C(=O)O[C@@H]1[C@@H](CO[P@@]2(=O)OCC[C@@H](c3cccc(Cl)c3)O2)O[C@@H](n2ccc(N)nc2=O)[C@]1(C)O.O=C(O)C(F)(F)F (relative stereo) [Compound 41.2, cis-5′-O-[4-(S)-(3-Chlorophenyl)-2-oxo-1,2,3-dioxaphosphorin-2-yl]-2′-C-methyl-3′-(L-valinyl)cytidine trifluoroacetic acid salt]
Liver Targeting Index (Liver/Plasma) [1]: 302
Cmax ([1]; 2′-C-methylcytidine): 340 nM
Prodrug Improvement (Fold) ([1]; liver targeting over free nucleoside): 4081 Fold

C[C@@]1(O)[C@H](O)[C@@H](CO[P@]2(=O)OCC[C@H](c3cccc(Cl)c3)O2)O[C@H]1n1cnc2c(=O)[nH]c(N)nc21 (relative stereo) [Compound 19, cis-5′-O-[4-(3-Chlorophenyl)-2-oxo-1,3,2-dioxaphosphorinan-2-yl]-2′-C-methylguanosine]
lowering viral RNA production in the culture medium, prodrug compared with nucleoside 2′-C-methylguanosine ([2]; HCV-infected human liver slices, 72 h): more effective
amount of HCV RNA released into the culture medium from 48-72 h [2]: decreased

C[C@@]1(O)[C@H](O)[C@@H](COP2(=O)OCC[C@H](c3ccccc3)O2)O[C@H]1n1ccc2c(=O)[nH]c(N)nc21 (stereo partly drawn) [Compound 17.16, 2-amino-7-(cis-5′-O-[4-(R)-phenyl-2-oxo-1,3,2-dioxaphosphorinan-2-yl]-2′-C methyl-beta-D-ribofuranosyl)-7H-pyrrolo[2,3-d]pyrimidin-4(3)-one]
melting point: 128 to 133 °C

CC(=O)O[C@@H]1[C@@H](CO[P@@]2(=O)OCC[C@@H](c3cccc(Cl)c3)O2)O[C@@H](n2ccc3c(N)ncnc32)[C@]1(C)O [Compound 22.2, 4-amino-7-(3′-O-acetyl-cis-5′-O-[4-(S)-(3-chlorophenyl)-2-oxo-1,3,2-dioxaphosphorinan-2-yl]-2′-C-methyl-beta-D-ribofuranosyl)-7H-pyrrolo[2,3-d]pyrimidine]
melting point: 90 to 93 °C

C[C@@]1(O)[C@H](O)[C@@H](CO)O[C@H]1n1cnc2c(=O)[nH]c(N)nc21 [2′-C-methylguanosine, reference compound]
amount of HCV RNA released into the culture medium from 48-72 h [2]: decreased
